Results reported in US6737383B1, “Herbicidal oxadiazolidines” (priority 1999, dated 2004).

How the values were obtained:
duck salad = test: Test B flood test duck salad; format: in vivo, Heteranthera limosa
In short: (§1)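 Flood test on plants grown to the 2-leaf stage; treated plants kept in greenhouse twelve to sixteen days, then visually rated against controls on a 0 (no effect) to 10 (complete control) scale.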

pigweed = test: Test B pre/postemergence pigweed; format: in vivo, Amaranthus retroflexus
In short: (§2)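 Herbicidal effect was estimated by eye on a ten-point control scale after plants spent twelve to sixteen days in a greenhouse following soil or foliar treatment. Foliar sprays targeted plants at one to four leaves; all doses were formulated in a non-phytotoxic solvent with surfactant.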

giant foxtail = test: Test B pre/postemergence giant foxtail; format: in vivo, Setaria faberii
In short: as §2

wild oat = test: Test B pre/postemergence wild oat; format: in vivo, Avena fatua
In short: as §2

morningglory = test: Test B pre/postemergence morningglory; format: in vivo, Ipomoea hederacea
In short: as §2

crabgrass = test: Test B pre/postemergence crabgrass; format: in vivo, Digitaria sanguinalis
In short: as §2

rice = test: Test B flood test rice; format: in vivo, Oryza sativa
In short: as §1

corn = test: Test B pre/postemergence corn; format: in vivo, Zea mays
In short: as §2

smallflower flatsedge = test: Test B flood test smallflower flatsedge; format: in vivo, Cyperus difformis
In short: as §1

cocklebur = test: Test B pre/postemergence cocklebur; format: in vivo, Xanthium strumarium
In short: as §2

rape = test: Test B pre/postemergence rape; format: in vivo, Brassica napus
In short: as §2

purple nutsedge = test: Test B pre/postemergence purple nutsedge; format: in vivo, Cyperus rotundus
In short: as §2

soybean = test: Test B pre/postemergence soybean; format: in vivo, Glycine max
In short: as §2

velvetleaf = test: Test B pre/postemergence velvetleaf; format: in vivo, Abutilon theophrasti
In short: as §2

bedstraw = test: Test B pre/postemergence bedstraw; format: in vivo, Galium aparine
In short: as §2

wheat = test: Test B pre/postemergence wheat; format: in vivo, Triticum aestivum
In short: as §2

[1] = Rate 62 g/ha, headed Pre-emergence (flood test species), scale 0 to 10 (0 no effect, 10 complete control)
[2] = Rate 125 g/ha, Pre-emergence, flood test species, scale 0 to 10 where 0 is no effect and 10 is complete control
[3] = Rate 250 g/ha, Pre-emergence, flood-test species, scale 0 to 10, 0 is no effect, 10 is complete control
[4] = Rate 500 g/ha, headed Pre-emergence (flood test species), scale 0 to 10 (0 no effect, 10 complete control)
[5] = Preemergence, Rate 62 g/ha, scale of 0 to 10 where 0 is no effect and 10 is complete control
[6] = Preemergence, Rate 125 g/ha, 0 is no effect, 10 is complete control
[7] = Preemergence, Rate 250 g/ha, scale 0 to 10, 0 is no effect, 10 is complete control
[8] = Preemergence, Rate 500 g/ha, scale of 0 to 10 where 0 is no effect and 10 is complete control
[9] = Rate 62 g/ha, Postemergence, scale of 0 to 10 where 0 is no effect and 10 is complete control
[10] = Rate 125 g/ha, Postemergence, scale 0 to 10
[11] = Rate 500 g/ha, Postemergence, scale 0 to 10

Q: For `Cc1nc(C)c(-n2c(=O)on(C(=O)N(c3ccc(F)cc3)C(C)C)c2=O)s1` [Compound 198], which “Ducksalad plant response rating” value (duck salad; [1]) is on record?
A: 0

Q: And the “Ducksalad plant response rating” value (duck salad; [2])?
A: 0

Q: What about the “Ducksalad plant response rating” value (duck salad; [3]) of the same molecule?
A: 0

Q: And the “Plant response rating, Ducksalad” value (duck salad; [4])?
A: 0

Q: What about the “Redroot pigweed plant response rating” value (pigweed; [5]) of the same molecule?
A: 0

Q: And the “Redroot pigweed plant response rating (0 to 10 scale)” value (pigweed; [6])?
A: 0

Q: And the “Redroot pigweed plant response rating” value (pigweed; [7])?
A: 0

Q: And the “Plant response rating, Redroot pigweed” value (pigweed; [8])?
A: 0

Q: What about the “Redroot pigweed plant response rating” value (pigweed; [9]) of the same molecule?
A: 0

Q: What about the “Redroot pigweed plant response rating” value (pigweed; [10]) of the same molecule?
A: 0

Q: And the “Plant response rating (0 to 10; 0 is no effect, 10 is complete control), Redroot pigweed” value (pigweed; Rate 250 g/ha, Postemergence)?
A: 0

Q: What about the “Redroot pigweed plant response rating” value (pigweed; [11]) of the same molecule?
A: 0

Q: And the “Giant foxtail plant response rating” value (giant foxtail; [5])?
A: 0

Q: And the “Giant foxtail plant response rating (0 to 10 scale)” value (giant foxtail; [6])?
A: 0

Q: And the “Giant foxtail plant response rating” value (giant foxtail; [7])?
A: 0

Q: And the “Plant response rating, Giant foxtail” value (giant foxtail; [8])?
A: 3

Q: What about the “Giant foxtail plant response rating” value (giant foxtail; [9]) of the same molecule?
A: 0

Q: What about the “Giant foxtail plant response rating” value (giant foxtail; [10]) of the same molecule?
A: 0

Q: What about the “Plant response rating (0 to 10; 0 is no effect, 10 is complete control), Giant foxtail” value (giant foxtail; Rate 250 g/ha, Postemergence) of the same molecule?
A: 0

Q: What about the “Giant foxtail plant response rating” value (giant foxtail; [11]) of the same molecule?
A: 0

Q: And the “Wild oats plant response rating” value (wild oat; [5])?
A: 0

Q: What about the “Wild oats plant response rating” value (wild oat; [7]) of the same molecule?
A: 0

Q: And the “Plant response rating, Wild oats” value (wild oat; [8])?
A: 0

Q: And the “Wild oats plant response rating” value (wild oat; [9])?
A: 0

Q: And the “Wild oats plant response rating” value (wild oat; [10])?
A: 0

Q: And the “Plant response rating (0 to 10; 0 is no effect, 10 is complete control), Wild oats” value (wild oat; Rate 250 g/ha, Postemergence)?
A: 0

Q: And the “Morningglory plant response rating” value (morningglory; [5])?
A: 0

Q: And the “Morningglory plant response rating (0 to 10 scale)” value (morningglory; [6])?
A: 0

Q: What about the “Morningglory plant response rating” value (morningglory; [7]) of the same molecule?
A: 0

Q: And the “Plant response rating, Morningglory” value (morningglory; [8])?
A: 0

Q: What about the “Morningglory plant response rating” value (morningglory; [9]) of the same molecule?
A: 0

Q: What about the “Morningglory plant response rating” value (morningglory; [10]) of the same molecule?
A: 0

Q: And the “Plant response rating (0 to 10; 0 is no effect, 10 is complete control), Morningglory” value (morningglory; Rate 250 g/ha, Postemergence)?
A: 2

Q: What about the “Morningglory plant response rating” value (morningglory; [11]) of the same molecule?
A: 3

Q: And the “Crabgrass plant response rating” value (crabgrass; [5])?
A: 0

Q: What about the “Crabgrass plant response rating (0 to 10 scale)” value (crabgrass; [6]) of the same molecule?
A: 0

Q: And the “Crabgrass plant response rating” value (crabgrass; [7])?
A: 0

Q: What about the “Plant response rating, Crabgrass” value (crabgrass; [8]) of the same molecule?
A: 0

Q: And the “Crabgrass plant response rating” value (crabgrass; [9])?
A: 0

Q: What about the “Crabgrass plant response rating” value (crabgrass; [10]) of the same molecule?
A: 0

Q: What about the “Plant response rating (0 to 10; 0 is no effect, 10 is complete control), Crabgrass” value (crabgrass; Rate 250 g/ha, Postemergence) of the same molecule?
A: 0

Q: And the “Crabgrass plant response rating” value (crabgrass; [11])?
A: 0

Q: What about the “Rice plant response rating” value (rice; [1]) of the same molecule?
A: 0

Q: What about the “Rice plant response rating” value (rice; [2]) of the same molecule?
A: 0

Q: And the “Rice plant response rating” value (rice; [3])?
A: 0

Q: What about the “Plant response rating, Rice” value (rice; [4]) of the same molecule?
A: 0

Q: And the “Corn plant response rating” value (corn; [5])?
A: 0

Q: What about the “Corn plant response rating (0 to 10 scale)” value (corn; [6]) of the same molecule?
A: 0

Q: What about the “Corn plant response rating” value (corn; [7]) of the same molecule?
A: 0

Q: And the “Plant response rating, Corn” value (corn; [8])?
A: 0

Q: And the “Corn plant response rating” value (corn; [9])?
A: 0

Q: What about the “Corn plant response rating” value (corn; [10]) of the same molecule?
A: 0

Q: And the “Plant response rating (0 to 10; 0 is no effect, 10 is complete control), Corn” value (corn; Rate 250 g/ha, Postemergence)?
A: 0

Q: And the “Corn plant response rating” value (corn; [11])?
A: 0

Q: And the “S. Flatsedge plant response rating” value (smallflower flatsedge; [1])?
A: 0

Q: What about the “S. Flatsedge plant response rating” value (smallflower flatsedge; [2]) of the same molecule?
A: 0

Q: What about the “S. Flatsedge plant response rating” value (smallflower flatsedge; [3]) of the same molecule?
A: 0

Q: And the “S. Flatsedge plant response rating” value (smallflower flatsedge; Rate 500 g/ha, Pre-emergence, flood test species, scale 0 to 10 (0 no effect, 10 complete control))?
A: 0

Q: And the “Cocklebur plant response rating” value (cocklebur; [5])?
A: 0

Q: What about the “Cocklebur plant response rating (0 to 10 scale)” value (cocklebur; [6]) of the same molecule?
A: 0

Q: What about the “Cocklebur plant response rating” value (cocklebur; [7]) of the same molecule?
A: 0

Q: What about the “Plant response rating, Cocklebur” value (cocklebur; [8]) of the same molecule?
A: 0

Q: And the “Cocklebur plant response rating” value (cocklebur; [9])?
A: 0

Q: What about the “Cocklebur plant response rating” value (cocklebur; [10]) of the same molecule?
A: 0

Q: And the “Plant response rating (0 to 10; 0 is no effect, 10 is complete control), Cocklebur” value (cocklebur; Rate 250 g/ha, Postemergence)?
A: 0

Q: What about the “Cocklebur plant response rating” value (cocklebur; [11]) of the same molecule?
A: 0

Q: And the “Rape plant response rating” value (rape; [5])?
A: 0

Q: And the “Rape plant response rating (0 to 10 scale)” value (rape; [6])?
A: 0

Q: And the “Rape plant response rating” value (rape; [7])?
A: 0

Q: What about the “Plant response rating, Rape” value (rape; [8]) of the same molecule?
A: 0

Q: And the “Rape plant response rating” value (rape; [9])?
A: 0

Q: And the “Rape plant response rating” value (rape; [10])?
A: 0

Q: What about the “Plant response rating (0 to 10; 0 is no effect, 10 is complete control), Rape” value (rape; Rate 250 g/ha, Postemergence) of the same molecule?
A: 0

Q: And the “Rape plant response rating” value (rape; [11])?
A: 0

Q: What about the “Nutsedge plant response rating” value (purple nutsedge; [5]) of the same molecule?
A: 0

Q: What about the “Nutsedge plant response rating (0 to 10 scale)” value (purple nutsedge; [6]) of the same molecule?
A: 0

Q: And the “Nutsedge plant response rating” value (purple nutsedge; [7])?
A: 0

Q: And the “Plant response rating, Nutsedge” value (purple nutsedge; [8])?
A: 0

Q: And the “Nutsedge plant response rating” value (purple nutsedge; [9])?
A: 0

Q: What about the “Nutsedge plant response rating” value (purple nutsedge; [10]) of the same molecule?
A: 0

Q: What about the “Plant response rating (0 to 10; 0 is no effect, 10 is complete control), Nutsedge” value (purple nutsedge; Rate 250 g/ha, Postemergence) of the same molecule?
A: 0

Q: And the “Nutsedge plant response rating” value (purple nutsedge; [11])?
A: 0

Q: And the “Soybean plant response rating” value (soybean; [5])?
A: 0

Q: And the “Soybean plant response rating (0 to 10 scale)” value (soybean; [6])?
A: 0

Q: What about the “Soybean plant response rating” value (soybean; [7]) of the same molecule?
A: 0

Q: And the “Plant response rating, Soybean” value (soybean; [8])?
A: 0

Q: What about the “Soybean plant response rating” value (soybean; [9]) of the same molecule?
A: 0

Q: What about the “Soybean plant response rating” value (soybean; [10]) of the same molecule?
A: 0

Q: And the “Plant response rating (0 to 10; 0 is no effect, 10 is complete control), Soybean” value (soybean; Rate 250 g/ha, Postemergence)?
A: 0

Q: What about the “Soybean plant response rating” value (soybean; [11]) of the same molecule?
A: 1

Q: And the “Velvetleaf plant response rating” value (velvetleaf; [5])?
A: 0

Q: What about the “Velvetleaf plant response rating” value (velvetleaf; [7]) of the same molecule?
A: 0

Q: What about the “Plant response rating, Velvetleaf” value (velvetleaf; [8]) of the same molecule?
A: 0

Q: And the “Velvetleaf plant response rating” value (velvetleaf; [9])?
A: 0

Q: And the “Velvetleaf plant response rating” value (velvetleaf; [10])?
A: 0

Q: And the “Plant response rating (0 to 10; 0 is no effect, 10 is complete control), Velvetleaf” value (velvetleaf; Rate 250 g/ha, Postemergence)?
A: 0

Q: What about the “Bedstraw plant response rating” value (bedstraw; [5]) of the same molecule?
A: 0

Q: And the “Bedstraw plant response rating (0 to 10 scale)” value (bedstraw; [6])?
A: 0

Q: And the “Bedstraw plant response rating” value (bedstraw; [7])?
A: 0

Q: What about the “Plant response rating, Bedstraw” value (bedstraw; [8]) of the same molecule?
A: 0

Q: What about the “Bedstraw plant response rating” value (bedstraw; [9]) of the same molecule?
A: 0

Q: And the “Bedstraw plant response rating” value (bedstraw; [10])?
A: 0

Q: And the “Plant response rating (0 to 10; 0 is no effect, 10 is complete control), Bedstraw” value (bedstraw; Rate 250 g/ha, Postemergence)?
A: 0

Q: What about the “Wheat plant response rating” value (wheat; [5]) of the same molecule?
A: 0

Q: And the “Wheat plant response rating” value (wheat; [7])?
A: 0

Q: What about the “Plant response rating, Wheat” value (wheat; [8]) of the same molecule?
A: 0

Q: What about the “Wheat plant response rating” value (wheat; [9]) of the same molecule?
A: 0

Q: What about the “Wheat plant response rating” value (wheat; [10]) of the same molecule?
A: 0

Q: What about the “Plant response rating (0 to 10; 0 is no effect, 10 is complete control), Wheat” value (wheat; Rate 250 g/ha, Postemergence) of the same molecule?
A: 0
